Assay results taken from ChEMBL document CHEMBL4828767, “Identification of Clinical Candidate M2698, a Dual p70S6K and Akt Inhibitor, for Treatment of PAM Pathway-Altered Cancers” (J Med Chem, 2021).
pIC50: −log10 of the molar value. Blank lines part the entries; values can stand above or below the molecule they belong to.

Columns and labels:
[1] = target: Ribosomal protein S6 kinase beta-1 (Homo sapiens, UniProt P23443, T412E); assay type: cell-based, Sf21
cells = assay type: cell-based; conditions: Homo sapiens, MDA-MB-468
[2] = target: RAC-alpha serine/threonine-protein kinase (Homo sapiens, UniProt P31749)
[3] = target: Aurora kinase B/Inner centromere protein (Homo sapiens, UniProt Q96GD4); experiment: biochemical; assay type: cell-based, Sf21
[4] = mouse, microsomes
Description: Intrinsic clearance in mouse microsomes

[5] = rat, microsomes
Description: Intrinsic clearance in rat microsomes

[6] = human, microsomes
Description: Intrinsic clearance in human microsomes

in vivo [7] = conditions: rat
Description: Volume of distribution at steady state in rat

in vivo [8] = conditions: rat; remark: listed apart in the source
in vivo [9] = conditions: rat, po
Description: Oral bioavailability in rat

in vivo [10] = conditions: mouse
in vivo [11] = conditions: mouse; remark: listed apart in the source
in vivo [12] = conditions: mouse; remark: listed apart in the source
Description: Volume of distribution at steady state in mouse

in vivo [13] = conditions: mouse, po
Description: Oral bioavailability in mouse

in vivo [14] = conditions: rat; remark: listed apart in the source
in vivo [15] = conditions: dog
in vivo [16] = conditions: dog; remark: listed apart in the source
in vivo [17] = conditions: dog, po
Description: Oral bioavailability in dog

in vivo [18] = conditions: dog; remark: listed apart in the source
Description: Volume of distribution at steady state in dog

in vivo [19] = conditions: cynomolgus monkey
Description: Clearance in cynomolgus monkey

in vivo [20] = conditions: cynomolgus monkey; remark: listed apart in the source
Description: Half life in cynomolgus monkey

in vivo [21] = conditions: cynomolgus monkey, po
Description: Oral bioavailability in cynomolgus monkey

in vivo [22] = conditions: cynomolgus monkey; remark: listed apart in the source
Description: Volume of distribution at steady state in cynomolgus monkey

in vitro [23] = conditions: human, Caco-2
in vitro [24] = conditions: mouse, plasma
Description: Protein binding in mouse plasma assessed as unbound fraction

in vitro [25] = conditions: rat, plasma
Description: Protein binding in rat plasma assessed as unbound fraction

in vitro [26] = conditions: human, plasma
Description: Protein binding in human plasma assessed as unbound fraction

physchem = conditions: octanol/water
Description: Lipophilicity, logP of compound

in vitro [27] = conditions: human, Caco-2; remark: listed apart in the source
MDA-MB-468 = experiment: cells; assay type: functional, cell-based; conditions: Homo sapiens, MDA-MB-468, 96 h
Description: Antiproliferative activity against human MDA-MB-468 cells incubated for 96 hrs by luminescence method

Cytochrome P450 2C9 = Cytochrome P450 2C9 (Homo sapiens, UniProt P11712)
Description: Inhibition of CYP2C9 (unknown origin)

[28] = buffer, pH 7.4
Description: Thermodynamic solubility of compound at pH 7.4

hERG (KCNH2) = hERG (KCNH2) (Homo sapiens, UniProt Q12809); experiment: in vitro
hERG (KCNH2), sequence (Q12809 whole entry): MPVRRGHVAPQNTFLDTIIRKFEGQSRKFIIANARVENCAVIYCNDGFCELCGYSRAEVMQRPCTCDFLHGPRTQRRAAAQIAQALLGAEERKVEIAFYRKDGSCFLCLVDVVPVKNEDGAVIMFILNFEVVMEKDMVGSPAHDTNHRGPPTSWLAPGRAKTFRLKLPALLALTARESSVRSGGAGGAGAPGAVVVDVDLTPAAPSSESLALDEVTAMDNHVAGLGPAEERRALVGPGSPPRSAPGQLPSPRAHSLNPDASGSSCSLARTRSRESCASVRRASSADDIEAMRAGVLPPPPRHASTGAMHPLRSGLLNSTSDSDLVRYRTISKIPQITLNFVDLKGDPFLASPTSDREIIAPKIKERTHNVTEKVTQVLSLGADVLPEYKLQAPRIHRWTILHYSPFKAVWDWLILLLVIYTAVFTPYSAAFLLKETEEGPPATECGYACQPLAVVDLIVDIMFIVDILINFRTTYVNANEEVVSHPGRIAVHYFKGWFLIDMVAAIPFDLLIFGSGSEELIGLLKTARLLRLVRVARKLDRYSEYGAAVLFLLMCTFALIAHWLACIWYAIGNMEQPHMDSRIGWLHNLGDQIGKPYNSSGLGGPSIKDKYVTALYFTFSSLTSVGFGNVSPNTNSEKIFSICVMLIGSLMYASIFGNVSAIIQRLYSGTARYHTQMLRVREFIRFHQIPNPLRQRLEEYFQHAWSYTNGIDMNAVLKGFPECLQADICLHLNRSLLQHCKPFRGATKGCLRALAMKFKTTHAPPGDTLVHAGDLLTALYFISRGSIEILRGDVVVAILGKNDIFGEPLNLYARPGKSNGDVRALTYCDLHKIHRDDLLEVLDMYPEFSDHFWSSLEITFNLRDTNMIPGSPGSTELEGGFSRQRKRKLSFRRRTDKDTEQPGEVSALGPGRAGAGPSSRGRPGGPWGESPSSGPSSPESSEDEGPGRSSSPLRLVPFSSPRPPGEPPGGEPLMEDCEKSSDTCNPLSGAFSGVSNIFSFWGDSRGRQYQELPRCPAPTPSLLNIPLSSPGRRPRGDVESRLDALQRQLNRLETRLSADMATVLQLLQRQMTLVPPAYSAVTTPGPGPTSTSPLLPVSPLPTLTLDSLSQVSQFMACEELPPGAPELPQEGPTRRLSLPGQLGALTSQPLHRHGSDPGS
Description: Inhibition of human ERG at 10 uM relative to control

Aurora kinase B/Inner centromere protein, sequence (Q96GD4 whole entry): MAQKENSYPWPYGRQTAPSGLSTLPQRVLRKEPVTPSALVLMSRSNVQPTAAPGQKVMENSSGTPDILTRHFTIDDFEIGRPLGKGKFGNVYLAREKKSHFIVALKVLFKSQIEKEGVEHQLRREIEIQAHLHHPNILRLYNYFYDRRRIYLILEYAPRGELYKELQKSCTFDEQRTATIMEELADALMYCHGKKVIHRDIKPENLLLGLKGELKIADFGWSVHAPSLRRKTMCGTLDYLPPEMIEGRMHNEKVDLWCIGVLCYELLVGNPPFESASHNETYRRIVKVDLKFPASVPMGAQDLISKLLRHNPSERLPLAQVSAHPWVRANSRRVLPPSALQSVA
Aurora kinase B/Inner centromere protein, sequence (Q9NQS7 whole entry, further chain): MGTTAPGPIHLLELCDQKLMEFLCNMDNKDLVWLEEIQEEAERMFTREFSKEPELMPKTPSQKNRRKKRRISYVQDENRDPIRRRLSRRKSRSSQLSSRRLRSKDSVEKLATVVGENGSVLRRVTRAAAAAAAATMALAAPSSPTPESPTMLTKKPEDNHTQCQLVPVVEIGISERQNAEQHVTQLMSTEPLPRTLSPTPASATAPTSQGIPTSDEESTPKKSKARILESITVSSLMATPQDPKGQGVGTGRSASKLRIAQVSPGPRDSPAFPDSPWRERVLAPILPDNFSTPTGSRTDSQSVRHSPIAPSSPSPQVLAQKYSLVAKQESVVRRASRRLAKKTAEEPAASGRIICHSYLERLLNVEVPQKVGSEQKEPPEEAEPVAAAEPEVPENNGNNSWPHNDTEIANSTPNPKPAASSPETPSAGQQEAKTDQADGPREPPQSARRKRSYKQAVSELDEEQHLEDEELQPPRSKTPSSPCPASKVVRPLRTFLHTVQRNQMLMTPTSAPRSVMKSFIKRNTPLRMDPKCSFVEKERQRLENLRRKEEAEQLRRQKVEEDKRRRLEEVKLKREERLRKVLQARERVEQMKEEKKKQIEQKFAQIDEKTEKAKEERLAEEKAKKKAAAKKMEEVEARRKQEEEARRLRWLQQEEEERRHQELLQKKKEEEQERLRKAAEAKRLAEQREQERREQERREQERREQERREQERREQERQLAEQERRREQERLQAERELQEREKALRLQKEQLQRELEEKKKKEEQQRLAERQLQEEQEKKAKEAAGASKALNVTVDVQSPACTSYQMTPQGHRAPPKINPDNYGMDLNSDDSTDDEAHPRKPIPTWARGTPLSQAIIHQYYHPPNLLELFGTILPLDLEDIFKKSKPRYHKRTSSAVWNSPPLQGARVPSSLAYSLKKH
Ribosomal protein S6 kinase beta-1, sequence (P23443 whole entry T412E): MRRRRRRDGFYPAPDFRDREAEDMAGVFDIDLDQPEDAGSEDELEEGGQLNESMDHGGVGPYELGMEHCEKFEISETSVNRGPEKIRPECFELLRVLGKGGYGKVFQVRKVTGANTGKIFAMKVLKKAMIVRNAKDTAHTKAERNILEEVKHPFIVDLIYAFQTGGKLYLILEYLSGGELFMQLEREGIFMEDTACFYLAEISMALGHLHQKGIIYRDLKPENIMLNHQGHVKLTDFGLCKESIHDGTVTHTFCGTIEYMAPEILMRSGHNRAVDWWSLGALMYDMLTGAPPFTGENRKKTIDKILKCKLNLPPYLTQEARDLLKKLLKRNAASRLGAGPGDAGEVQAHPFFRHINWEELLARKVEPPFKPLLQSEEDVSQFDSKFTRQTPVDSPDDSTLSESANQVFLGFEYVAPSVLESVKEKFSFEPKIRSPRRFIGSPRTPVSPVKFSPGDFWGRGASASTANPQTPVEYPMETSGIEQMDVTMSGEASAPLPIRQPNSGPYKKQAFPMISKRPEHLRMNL
RAC-alpha serine/threonine-protein kinase, sequence (P31749 whole entry): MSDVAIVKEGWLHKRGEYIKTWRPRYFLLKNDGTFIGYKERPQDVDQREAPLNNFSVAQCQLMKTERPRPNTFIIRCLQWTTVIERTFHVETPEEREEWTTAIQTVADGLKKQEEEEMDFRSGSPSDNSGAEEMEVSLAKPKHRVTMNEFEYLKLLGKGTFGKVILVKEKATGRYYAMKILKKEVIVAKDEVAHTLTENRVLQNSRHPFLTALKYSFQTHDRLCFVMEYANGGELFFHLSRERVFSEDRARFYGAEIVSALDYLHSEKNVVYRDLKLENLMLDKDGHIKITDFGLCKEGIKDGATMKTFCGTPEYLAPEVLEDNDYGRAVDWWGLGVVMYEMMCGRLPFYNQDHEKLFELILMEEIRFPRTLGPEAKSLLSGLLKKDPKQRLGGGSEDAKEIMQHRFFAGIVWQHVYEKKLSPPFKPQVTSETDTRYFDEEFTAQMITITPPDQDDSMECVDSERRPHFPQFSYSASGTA
Cytochrome P450 2C9, sequence (P11712 whole entry): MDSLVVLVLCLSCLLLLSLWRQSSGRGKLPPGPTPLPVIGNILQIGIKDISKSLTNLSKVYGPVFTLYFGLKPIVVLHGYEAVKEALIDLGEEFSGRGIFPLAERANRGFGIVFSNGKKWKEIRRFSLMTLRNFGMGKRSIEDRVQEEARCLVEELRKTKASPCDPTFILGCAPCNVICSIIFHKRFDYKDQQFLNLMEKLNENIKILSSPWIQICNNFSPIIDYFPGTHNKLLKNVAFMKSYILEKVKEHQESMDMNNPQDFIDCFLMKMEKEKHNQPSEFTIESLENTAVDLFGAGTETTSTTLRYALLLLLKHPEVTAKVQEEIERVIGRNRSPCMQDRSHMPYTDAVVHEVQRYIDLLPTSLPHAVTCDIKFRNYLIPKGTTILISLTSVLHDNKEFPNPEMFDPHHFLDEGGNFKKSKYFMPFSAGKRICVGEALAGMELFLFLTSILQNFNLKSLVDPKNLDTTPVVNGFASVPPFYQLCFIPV

SMILES: CNC[C@@H](Nc1nc(C(F)(F)F)nc2c(C(N)=O)cccc12)c1cccc(F)c1
pIC50 [1]: 7.52
pIC50 [2]: 6.40
pIC50 [3]: < 6.00

SMILES: NC(=O)c1cccc2c(NCc3ccc4c(c3)OCO4)ncnc12
pIC50 [2]: < 5.00

SMILES: NC(=O)c1cccc2c(N[C@H](CN3CCC3)c3ccc(F)cc3)ncnc12
pIC50 [1]: 8.10
pIC50 (cells): 6.99

SMILES: O=C(O)c1cccc2c(NCc3ccc4c(c3)OCO4)ncnc12
pIC50 [1]: < 5.00

SMILES: CNCC(Nc1ncnc2c(C(N)=O)cccc12)c1cccc(F)c1 (racemic)
pIC50 [2]: 7.82
pIC50 (cells): 7.60
pIC50 [3]: 8.05

SMILES: NC(=O)c1cccc2c(N[C@H](CN3CCCC3)c3cccc(F)c3)ncnc12
pIC50 [1]: 7.19
pIC50 [2]: 6.25
pIC50 (cells): < 6.00
pIC50 [3]: 7.35

SMILES: NC(=O)c1cccc2c(NCc3ccc4c(c3)OCO4)nccc12
pIC50 [1]: < 5.00
pIC50 [2]: < 5.00

SMILES: CNCCC(Nc1ncnc2c(C(N)=O)cccc12)c1ccccc1 (stereo unspecified)
pIC50 [1]: 6.80

SMILES: NC(=O)c1cccc2c(N[C@H](CN3CCCC3)c3ccccc3)ncnc12
pIC50 (cells): 8.04

SMILES: CNC(=O)c1cccc2c(NCc3ccc4c(c3)OCO4)ncnc12
pIC50 [1]: < 5.00

SMILES: CN(C)C(=O)c1cccc2c(NCc3ccc4c(c3)OCO4)ncnc12
pIC50 [1]: < 5.00

SMILES: NC(=O)c1cccc2c(NCc3ccc4c(c3)OCO4)ccnc12
pIC50 [2]: < 5.00

SMILES: CN(Cc1ccccc1)c1ncnc2c(C(N)=O)cccc12
pIC50 [1]: 6.01

SMILES: CNC[C@H](Nc1ncnc2c(C(N)=O)cccc12)c1cccc(F)c1
pIC50 (cells): 6.15

SMILES: COC(=O)c1cccc2c(NCc3ccc4c(c3)OCO4)ncnc12
pIC50 [1]: < 5.00

SMILES: c1ccc(CNc2ncnc3ccccc23)cc1
pIC50 [1]: < 5.00

SMILES: NC(=O)c1cccc2c(N[C@H](CN3CCC3)c3cccc(C(F)(F)F)c3)ncnc12
pIC50 [2]: 8.22
pIC50 (cells): 7.25

SMILES: CNC[C@@H](Nc1ncnc2c(C(N)=O)cccc12)c1cccc(F)c1
pIC50 [2]: 8.40
pIC50 (cells): 7.35
pIC50 [3]: 8.40
pIC50 (MDA-MB-468): 6.71
pIC50 (Cytochrome P450 2C9): 5.44
Therm_solubility [28]: 64 mg/mL
CL [4]: 11 mL/min
CL [5]: 29 mL/min
CL [6]: 21 mL/min
clearance (in vivo [10]): 29 mL/min/kg
half-life (in vivo [11]): 2.1 h
bioavailability (in vivo [13]): 33%
Papp A→B (in vitro [23]): 16 ×10⁻⁶ cm/s
fraction unbound (in vitro [24]): 0.22
fraction unbound (in vitro [25]): 0.23
fraction unbound (in vitro [26]): 0.15
inhibition at 10 µM (hERG (KCNH2)): 26%

More lines, now with the values ahead:

pIC50 [1]: 8.62
pIC50 (cells): 7.12
SMILES: NC(=O)c1cccc2c(N[C@H](CN3CCC3)c3cccc(F)c3)ncnc12

pIC50 [1]: 8.89
pIC50 [2]: 7.85
pIC50 (cells): 7.60
SMILES: NC(=O)c1cccc2c(N[C@H](CN3CCC3)c3cccc(Cl)c3)ncnc12

pIC50 [1]: 9.00
pIC50 [2]: 8.40
pIC50 (cells): 7.13
SMILES: NC(=O)c1cccc2c(N[C@H](CN3CCC3)c3ccc(F)c(F)c3)ncnc12

pIC50 [1]: 8.70
pIC50 [2]: 7.36
pIC50 (cells): 7.14
pIC50 [3]: 8.22
SMILES: CNC[C@@H](Nc1nc(C)nc2c(C(N)=O)cccc12)c1cccc(F)c1

pIC50 [1]: 8.70
pIC50 [2]: 6.67
pIC50 (cells): 6.74
pIC50 [3]: 7.29
SMILES: CCc1nc(N[C@H](CNC)c2cccc(F)c2)c2cccc(C(N)=O)c2n1

pIC50 [1]: 8.70
pIC50 [2]: 8.00
pIC50 (cells): 7.37
pIC50 [3]: 7.12
SMILES: NC(=O)c1cccc2c(N[C@H](CN3CCC3)c3ccc(Cl)c(F)c3)ncnc12

pIC50 [1]: 8.21
pIC50 (cells): 8.80
SMILES: NC(=O)c1cccc2c(N[C@H](CN3CCC3)c3ccccc3)ncnc12

pIC50 [1]: 8.96
pIC50 [2]: 8.40
pIC50 (cells): 7.96
pIC50 [3]: 6.77
CL [4]: 30 mL/min
CL [5]: 37 mL/min
CL [6]: 31 mL/min
Vd (in vivo [7]): 17.6 L/kg
half-life (in vivo [8]): 3.9 h
bioavailability (in vivo [9]): 15%
clearance (in vivo [10]): 25 mL/min/kg
half-life (in vivo [11]): 4.3 h
Vd (in vivo [12]): 9.88 L/kg
bioavailability (in vivo [13]): 43%
clearance (in vivo [14]): 51.7 mL/min/kg
clearance (in vivo [15]): 20 mL/min/kg
half-life (in vivo [16]): 4.1 h
bioavailability (in vivo [17]): 36%
Vd (in vivo [18]): 7.43 L/kg
clearance (in vivo [19]): 15 mL/min/kg
half-life (in vivo [20]): 10.1 h
bioavailability (in vivo [21]): 44%
Vd (in vivo [22]): 14.3 L/kg
Papp A→B (in vitro [23]): 12.1 ×10⁻⁶ cm/s
fraction unbound (in vitro [24]): 0.03
fraction unbound (in vitro [25]): 0.05
fraction unbound (in vitro [26]): 0.05
logP (physchem): 2.4
efflux ratio (in vitro [27]): 1.5
SMILES: NC(=O)c1cccc2c(N[C@H](CN3CCC3)c3ccc(Cl)c(C(F)(F)F)c3)ncnc12 [RUPITASERTIB]

pIC50 [1]: 9.00
pIC50 (cells): 7.55
SMILES: NC(=O)c1cccc2c(N[C@H](CN3CCC3)c3ccc(C(F)(F)F)cc3)ncnc12

pIC50 [1]: 8.54
pIC50 [2]: 8.22
pIC50 (cells): 7.37
pIC50 [3]: 6.63
SMILES: NC(=O)c1cccc2c(N[C@H](CN3CCC3)c3ccc(F)c(C(F)(F)F)c3)ncnc12
